Experimental data: US20190255199A1, “NON-INVASIVE DIAGNOSTIC IMAGING AGENT FOR HEART DISEASE” (Nihon Medi-Physics Co., Ltd., priority 2016, published 2019)

Assays:
[1] = test system: heart tissue section of an ischemic heart disease model rat; test: In vitro autoradiography using ischemic heart disease model rat (Example 3); format: binding; details: for accumulation in the presence of an excessive amount of non-labeled compound (binding specificity): 5 μmol/L non-labeled compound (Compound 1 or Compound 2) added, FIG. 4(e)-(h) / FIG. 5(c),(d); for ratio of ischemia reperfusion site signal intensity/non-ischemic site signal intensity: ROI on autoradiograms, n=4, FIG. 7; for accumulation in lesion region on in vitro autoradiogram: sections immersed in labeled compound solution 30 minutes at room temperature, FIG. 4 / FIG. 5
Experimental: (§1) The chest of each Wistar rat (male) was opened under isoflurane anesthesia, and the left coronary artery was ligated for 30 minutes, followed by reperfusion. The chest was closed to prepare an ischemic heart disease model rat. Approximately 1 week after the operation, the rat was sacrificed under anesthesia, and the heart was taken out thereof. Sections of 5 μm in thickness were prepared from the base side of the heart. Immunostaining was carried out using the prepared sections to confirm the expression and distribution of CPY11B2. As an anti-CYP11B2 antibody, one prepared according to the method described in Ogishima T et al., Endocrinology, 1992, vol. 130, pp. 2971-7 was used. As a secondary antibody, HRP Labelled Polymer Anti-Rabbit (manufactured by Dako/Agilent Technologies, Inc.) was used. CYP11B2 expression sites were detected by applying DAB+(3,3′-diaminobenzidine tetrahydrochloride) substrate kit (manufactured by Dako/Agilent Technologies, Inc.) to the HRP bound to the secondary antibody.
Each ischemic heart disease model rat was prepared in the same way as in Example 1. The rat was sacrificed under isoflurane anesthesia between 1 and 3 weeks after the operation. Then, the heart was harvested, and 5 μm sections were prepared and preserved at −80° C. until they were used. The sections were brought back to room temperature from −80° C., dried for 30 minutes or longer, then immersed in phosphate-buffered saline for 30 minutes, and subsequently immersed in phosphate-buffered saline containing 1 w/v % bovine serum albumin for 30 minutes for hydrophilization. Each phosphate-buffered saline containing 1 w/v % bovine serum albumin and further containing Compound [^18F] 1 (radioactivity concentration: approximately 40 kBq/mL) or Compound [^123I] 2 (radioactivity concentration: approximately 10 kBq/mL) was prepared, and the hydrophilized sections were immersed therein at room temperature for 30 minutes. Then, the sections were washed by immersing for 5 minutes each in phosphate-buffered saline containing 1 w/v % bovine serum albumin, phosphate-buffered saline, and phosphate-buffered saline. The sections thus washed were thoroughly dried and then exposed to light for approximately 3 hours as to Compound [^18F] 1 and for approximately 16 hours as to Compound [^123I] 2 on an imaging plate (BAS-SR2040, manufactured by Fujifilm Corp.). Autoradiograms were obtained using a fluoro image analyzer (FLA-7000, manufactured by GE Healthcare Corp.).
Also, autoradiograms were obtained by immersing the sections in a solution containing Compound [^18F] 1 together with 5 μmol/L of Compound 1, or a solution containing Compound [^123I] 2 together with 5 μmol/L of Compound 2 in the same way as above.
The same experiment as above was conducted using the heart harvested from a normal rat.
ROI was established at an ischemia reperfusion site and a non-ischemic site as to the autoradiography of Compound [^18F] 1 and Compound [^123I] 2, and the ratio of signal intensity was compared between these sites. FIG. 7(a) is one example of an autoradiogram of the section immersed in Compound [^18F] 1. FIG. 7(c) is one example of an autoradiogram of the section immersed in Compound [^123I] 2. In both FIGS. 7(a) and 7(c), ROI of the ischemia reperfusion site is surrounded with the solid line, and ROI of the non-ischemic site is surrounded with the broken line. […] 1 in each rat. […] 2 in each rat. […] 1 and Compound [^123I] 2 at the ischemia reperfusion site compared with the non-ischemic site was observed. Higher accumulation of Compound [^123I] 2 than that of Compound [^18F] 1 was also observed.

[2] = test system: ischemic heart disease model rat; test: Ex vivo autoradiography using ischemic heart disease model rat (Example 2); format: in vivo
Experimental: as §1
Each ischemic heart disease model rat was prepared in the same way as in Example 1. Compound [^18F] 1 was administered thereto (approximately 50 MBq/rat) between 1 and 3 weeks after the operation. 20 minutes after the administration, the rat was sacrificed under anesthesia, and the heart was taken out thereof. […]

[3] = test system: heart tissue section of an ischemic heart disease model rat; test: Influence of elapsed time after ischemic heart disease model rat preparation on compound accumulation, in vitro autoradiography (Example 4); format: binding; details: normal rat and 1 day, 3 days, 1 week after the operation, FIG. 8(a)
Experimental: as §1
(§2) Each ischemic heart disease model rat was prepared in the same way as in Example 1. The rat was sacrificed under isoflurane anesthesia 1 day (3 rats), 3 days (4 rats) or 1 week (4 rats) after the operation. […] 2 (radioactivity concentration: approximately 10 kBq/mL) was prepared, and the hydrophilized sections were immersed therein at room temperature for 30 minutes. […]

normal rat = test: SPECT imaging experiment using normal rat (Example 5); format: in vivo; details: approximately 100 MBq/rat, imaging started 150 minutes after administration, FIG. 9(a)-(c)
Experimental: Each ischemic heart disease model rat was prepared in the same way as in Example 1. Compound [^123I] 2 was administered thereto (approximately 100 MBq/rat) in one week after the operation. Static imaging for approximately 8 minutes was started at 150 minutes after the administration using a SPECT apparatus for animals (FX3000, manufactured by TriFoil Imaging). Data collection was carried out in an energy window of 143 to 175 keV, and the collected data was reconstituted by OSEM (Ordered Subset Expectation Maximization) to obtain images. Computed tomography imaging was carried out in order to identify the position of the heart. The same experiment as above was conducted using a normal rat.

[4] = test system: ischemic heart disease model rat; test: SPECT imaging experiment using ischemic heart disease model rat (Example 5); format: in vivo; details: approximately 100 MBq/rat, one week after operation, static imaging started 150 minutes after administration, FIG. 9(d)-(f)
Experimental: as §1
Each ischemic heart disease model rat was prepared in the same way as in Example 1. Compound [^123I] 2 was administered thereto (approximately 100 MBq/rat) in one week after the operation. Static imaging for approximately 8 minutes was started at 150 minutes after the administration using a SPECT apparatus for animals (FX3000, manufactured by TriFoil Imaging). […]

[5] = test system: heart tissue section of an ischemic heart disease model rat; test: In vitro autoradiography using ischemic heart disease model rat (Example 10); format: binding; details: ischemic heart disease model rat one week after operation, approximately 10 kBq/mL, FIG. 14
Experimental: as §1
as §2, with “in one” for “1 day (3 rats), 3 days (4 rats) or 1”, “week” for “week (4 rats)”, “3” for “2”

[6] = test system: heart tissue section of a myocarditis model rat; test: In vitro autoradiography using myocarditis model rat (Example 7); format: binding
[7] = test system: heart tissue section of a hypertensive heart disease model rat; test: In vitro autoradiography using hypertensive heart disease model rat (Example 9); format: binding
Experimental: Each DIS/Eis (Dahl-Iwai S) rat (male, Japan SLC, Inc.) was fed with 8% NaCl diet (Oriental Yeast Co., Ltd.) from the age of 5 weeks, raised up to the age of 11 weeks, and then sacrificed under anesthesia, and the heart was taken out thereof. Sections of 5 μm in thickness were prepared. Immunostaining was carried out using the prepared sections to confirm the expression and distribution of CPY11B2. As an anti-CYP11B2 antibody, one prepared according to the method described in Ogishima T et al., Endocrinology, 1992, vol. 130, pp. 2971-7 was used. As a secondary antibody, HRP Labelled Polymer Anti-Rabbit (manufactured by Dako/Agilent Technologies, Inc.) was used. CYP11B2 expression sites were detected by applying DAB+(3,3′-diaminobenzidine tetrahydrochloride) substrate kit (manufactured by Dako/Agilent Technologies, Inc.) to the HRP bound to the secondary antibody. The same experiment as above was conducted using the heart harvested from a DIS/Eis rat raised with a NaCl-free diet (normal rat).
Each hypertensive heart disease model rat was prepared in the same way as in Example 8. The heart was harvested, and 5 μm-thick sections were prepared and preserved at −80° C. until they were used. […] 3 (radioactivity concentration: approximately 10 kBq/mL) was prepared, and the hydrophilized sections were immersed therein at room temperature for 30 minutes. […]

Compound | accumulation in the presence of an excessive amount of non-labeled compound (binding specificity) [1] | ratio of ischemia reperfusion site signal intensity/non-ischemic site signal intensity [1] | accumulation in lesion region on in vitro autoradiogram [1] | staining findings at the position corresponding to the accumulation site ([2]; HE, Masson trichrome and CYP11B2 immunostaining of adjacent section, FIG. 3) | accumulation in the heart on ex vivo autoradiogram ([2]; approximately 50 MBq/rat, 1 to 3 weeks after operation, heart taken 20 minutes after administration, FIG. 2) | agreement of accumulation with fibrosis region ([1]; Masson trichrome staining of the same section, FIG. 6) | accumulation compared between the two labeled compounds ([1]; signal intensity ratio, FIG. 7(b) versus 7(d)) | ratio of ischemia reperfusion site signal intensity/non-ischemic site signal intensity with elapsed time [3] | accumulation in the heart on SPECT image (normal rat) | accumulation in the heart on SPECT image [4] | accumulation in lesion region compared with normal rat [5] | agreement of accumulation with fibrosis region ([6]; Masson trichrome staining of adjacent section, FIG. 11) | accumulation in heart tissue section compared with normal rat ([6]; approximately 10 kBq/mL, FIG. 11(a),(b)) | agreement of accumulation with fibrosis region ([7]; Masson trichrome staining of adjacent section, FIG. 13) | accumulation in heart tissue section compared with normal rat ([7]; approximately 10 kBq/mL, FIG. 13(a),(b))
Fc1cc2nc(-c3cncc(Cn4ccnc4)c3)n(CC[18F])c2cc1Cl [Compound [^18F] 1, 6-chloro-5-fluoro-1-(2-[^18F]fluoroethyl)-2-[5-(imidazol-1-ylmethyl)pyridin-3-yl]benzimidazole] | inhibited by the addition of an excessive amount of a non-labeled compound, suggesting that the binding is specific | increased accumulation | accumulation of Compound [^18F] 1 in a lesion region was confirmed | inflammatory reaction, fibrosis, and CYP11B2 expression were also confirmed at a position corresponding to the accumulation site | local accumulation of Compound [^18F] 1 was confirmed |  |  |  |  |  |  |  |  |  | 
FCCn1c(-c2cncc(Cn3ccnc3)c2)nc2ccc([123I])cc21 [Compound [^123I] 2, 1-(2-fluoroethyl)-2-[5-{(imidazol-1-yl)methyl}pyridin-3-yl]-6-[^123I]iodobenzimidazole] | inhibited by the addition of an excessive amount of a non-labeled compound, suggesting that the binding is specific | increased accumulation | accumulation of Compound [^123I] 2 in a lesion region was confirmed |  |  | in good agreement with a fibrosis region | Higher accumulation of Compound [^123I] 2 than that of Compound [^18F] 1 | increased with elapsed time after the operation | not observed in the heart of the normal rat | confirmed in the heart of the ischemic heart disease model rat |  |  |  |  | 
Cn1c(-c2cncc(Cn3ccnc3)c2)nc2ccc([123I])cc21 [Compound [^123I] 3, 2-[5-{(1H-imidazol-1-yl)methyl}pyridin-3-yl]-6-[^123I]iodo-1-methyl-1H-benz[d]imidazole] |  |  |  |  |  |  |  |  |  |  | increased accumulation | in good agreement with a fibrosis region | increased accumulation | in good agreement with a fibrosis region | increased accumulation
